According to US11021753B2, “Mutant genes related to drug resistance and relapse of acute lymphoblastic leukaemia and a use thereof” (SHANGHAI CHILDREN'S MEDICAL CENTER, SHANGHAI JIAO TONG …, priority 2015, dated 2021):
Read-outs that look alike come from different tables or passages of the source.

What was measured:
[1] = test system: Reh cells expressing PRPS1 mutant genes; experiment: Identification of cells apoptosis (Annexin V / 7-AAD flow cytometry); format: cell-based, human; settings: 10 μg/ml 6-MP or 6-TG, 72 hours; cells expressing PRPS1 mutant genes compared with control group expressing empty load
Protocol: (i) Cell inoculation: Reh cells expressing the PRPS1 wild-type and various PRPS1 mutants were counted and seeded into 12-well plates with inoculated 3×10^5 cells per well. Duplicated wells were set up.
(ii) Cell treatment: the drug 6-MP or 6-TG with concentration of 10 μg/ml was added to a 12-well plate with grown cells and incubated at 37° C. for 72 hours.
(iii) Cell staining: After 72 hours, the cells were collected by centrifugation, washed with PBS buffer, added in […] and 7-AAD dye labeled with PE from BD, and incubated for 15 minutes at room temperature. The cells were centrifuged to discard the supernatant and washed twice with PBS. (iv) Identification by Flow Cytometer: proportion of cell apoptosis was determined using Flow Cytometer from Canto II BD.

[2] = test system: Reh cells expressing different PRPS1 mutant genes; experiment: Drug susceptibility test of 6-MP / 6-TG (cell survival, CellTiter-Glo); format: cell-based, human; settings: Reh cells expressing PRPS1 mutant genes compared with control group expressing empty load; 72 hours
Protocol: Reh cells are a strain of human acute B lymphoblastic leukemia. The susceptibility of the PRPS1 mutant to the chemotherapeutic drug 6-MP was determined by the survival rate of Reh cells expressing different PRPS1 mutant genes which were treated by chemotherapeutic drug 6-MP, wherein the process comprises steps of
(i) Cell inoculation: Reh cells expressing the PRPS1 wild-type and all kinds of PRPS1 mutants were counted and seeded into 96-well plates with inoculated 10^4 cells per well. Five parallel wells were designed.
Drugs were added into 96-well plates with grown cells and incubated at 37° C. for 72 hours.
The susceptibility of the PRPS1 mutant to the chemotherapeutic drug 6-TG was determined by the survival rate of Reh cells expressing different PRPS1 mutant genes which were treated by chemotherapeutic drug 6-TG, in which the process comprises steps of
(i) Cell inoculation: Reh cells expressing the PRPS1 wild-type and all kinds of PRPS1 mutants were counted and seeded into 96-well plates with inoculated 10^4 cells per well. Five parallel wells were set up.
Drug were added into 96-well plates with grown cells and incubated at 37° C. for 72 hours.

[3] = test system: PRPS1 loss-of-function mutants A87T and M115T; experiment: Inhibition of GDP/ADP on PRPS1 protein activity in vitro (Kinase-Glo); format: biochemical, human; settings: known loss-of-function mutants A87T and M115T compared with wild-type
Protocol: (§1) ATP (Item No. A7699), ADP (Item No. A2754), GDP (Item No. G7172) and ribose-5-phosphate (Item No. R7750) were purchased from Sigma. The reaction system comprised 50 mM Tris pH 7.5, 2 mM phosphate, 1 mM DTT, 10 mM MgCl2, 0.5 mM ribose-5-phosphate, 0.5 mM ATP and PRPS1 protein.
(§2) (ii) Inhibition of GDP/ADP on PRPS1 protein activity: 3 times gradient dilution of the GDP/ADP with an initial concentration of 5 mM And 15 μL of PRPS1 in vitro enzyme reaction system was prepared, added into 384-well plate, and reacted at 37° C. for 30 minutes. Then 10 μL of Kinase-Glo reagent (Item No. V3722) from Promega was added reacted at 37° C. for 15 minutes to terminate the reaction. The chemiluminescence values can be read in a microplate reader, and the inhibition of GDP/ADP on PRPS1 protein activity was calculated by Graphpad 5.0.

[4] = test system: PRPS1 mutants S103T, 5103N, N144S, T303S, K176N, D183E, A190T, A190V, L191F; experiment: as above; format: biochemical, human; settings: relapse-specific PRPS1 mutants compared with PRPS1 wild-type
Protocol: as §1, §2

[5] = test system: Reh cells expressing PRPS1 mutant genes; experiment: Cell-level feedback regulation of PRPS1 activity by GDP/ADP (13C5-PRPP by LC-MS); format: cell-based, human; settings: each PRPS1 mutant gene in experimental group; 2 mM ADP or 0.5 mM GDP, 4 hours
Protocol: (§3) In the present invention, the intracellular activity of PRPS1 was detected by means of isotope labeling in combination with the technologies of cell biology and metabolomics, and based on this, the effect of nucleotide GDP/ADP on PRPS1 activity was evaluated. The preferred embodiment is as follows:
(§4) (i) Cell culture: Reh cells expressing the PRPS1 wild-type and various PRPS1 mutants were counted and seeded into 6 cm culture dish, and 3×10^6 cells were inoculated in each well.
(§5) (ii) Cell treatment: 2 mM ADP or 0.5 mM GDP was added to the culture dish and cells were treated for 4 hours, after that, the cells were resuspended using glucose-free medium (Gibco, cat #11879-020), and 10 mM glucose labeled with ^13C6 was added into each 6 cm culture dish (Cambridge isotope laboratories, cat #CLM-1396-1) and labeled for 5 minutes. (iii) Cell collection: The cells were transferred to a centrifuge tube, centrifuged at 3,000 g for 5 minutes, the supernatant was removed, and the cells were lysed using 3×10^6 cells/200 μl 80% methanol. (iv) The level of ^13C5-PRPP was detected by LC-MS (ABI 5500 Qtrap coupled with Waters Acquity UPLC), and standard curve quantification was made using PRPP (sigma, cat #P8296). The activity of PRPS1 was determined according to the level of PRPP.

[6] = test system: Reh cells expressing the PRPS1 wild-type; experiment: as above; format: cell-based, human; settings: wild-type experimental group; 2 mM ADP or 0.5 mM GDP, 4 hours
Protocol: as §3, §4, §5

[7] = test system: Reh cells expressing PRPS1 mutants; experiment: Identification of intracellular metabolites of 6-MP by LC-MS; format: cell-based, human; settings: 10 μM 6-MP, 4 hours; mutants in experimental groups compared with control group
Protocol: 6-MP is a prodrug and needs to be undergone metabolic reactions in vivo to form TIMP and TGMP before it works, as shown in FIG. 9C. The identification procedure is as follows:
(i) Cell inoculation: Reh cells expressing the PRPS1 wild-type and various PRPS1 mutants were counted and seeded into 6 cm culture dish with inoculated 3×10^6 cells in each plate.
(ii) Cell treatment: 10 μM chemotherapy drug 6-MP was added into each 6 cm culture dish and treated for 4 hours;
(iii) Cell collection: The cells were transferred to a centrifuge tube, centrifuged at 3,000 g for 5 minutes to remove the supernatant, and lysed at 3×10^6 cells per 200 μl 80% methanol;
(iv) The amounts of metabolites from chemotherapeutic drugs 6-MP, TIMP, TGMP, r-MP, r-TG and r-MMP were measured by LC-MS (ABI 5500 Qtrap coupled with Waters Acquity UPLC), and standard curve for quantification was made using TIMP (Jean Bioscience, […], r-TG (Sigma, cat #858412), r-MMP (Sigma, cat #M4002) respectively.

Reh-PRPS1-A190T cells [8] = experiment: Concentration of 6-MP metabolites in cells treated with Lometrexol (LC-MS); format: cell-based, human; settings: Reh-PRPS1-A190T treated with Lometrexol vs control
Source text: (§6) (v) Determining the concentration of 6-MP metabolites: the same as Embodiment 13.

Reh-PRPS1-S103T cells [9] = experiment: as above; format: cell-based, human; settings: Reh-PRPS1-S103T treated with Lometrexol vs control
Source text: as §6

Reh-PRPS1-A190T cells [10] = experiment: Intracellular concentration of hypoxanthine in cells treated with Lometrexol (LC-MS); format: cell-based, human; settings: Reh-PRPS1-A190T treated with Lometrexol vs control
Protocol: (§7) (iii) Cell collection: cells were pipetted out from the well and centrifuged at 1500 rpm to remove the supernatant. The cells were washed with PBS once, and centrifuged again (500 g). Removed the supernatant.
(§8) (iv) Cell lysis: the cells were lysed using 200 μl 80% methanol per 3×10^6 cells.
(§9) (v) The lysed cells were centrifuged by 14,000 g at 4° C. for 10 minutes, and then the supernatant was transferred to a 1.5 ml EP tube.
(§10) (vi) The contents of hypoxanthine, AICAR and Inosine were detected by LC-MS technology (ABI 5500 Qtrap coupled with Waters Acquity UPLC), and standard curves for absolute quantification were made using ^13C5, ^15N4-hypoxanthine (Cambridge isotope laboratories, cat #489522), AICAR (sigma, cat #A9978) and Inosine (Sigma, cat #I4125), respectively.
(§11) (vi) Determining the intracellular concentration of hypoxanthine: the same as Embodiment 14.

Reh-PRPS1-S103T cells [11] = experiment: as above; format: cell-based, human; settings: Reh-PRPS1-S103T treated with Lometrexol vs control
Protocol: as §7, §8, §9, §10, §11

HGPRT = HGPRT (Homo sapiens, UniProt P00492); settings: for TIMP generation (6-MP conversion by HGPRT): 100 μM 6-MP as reaction substrate, increased concentration of hypoxanthine; for affinity to HGPRT (Km): compared with that of 6-MP and HGPRT
Chain of HGPRT (P00492 whole entry): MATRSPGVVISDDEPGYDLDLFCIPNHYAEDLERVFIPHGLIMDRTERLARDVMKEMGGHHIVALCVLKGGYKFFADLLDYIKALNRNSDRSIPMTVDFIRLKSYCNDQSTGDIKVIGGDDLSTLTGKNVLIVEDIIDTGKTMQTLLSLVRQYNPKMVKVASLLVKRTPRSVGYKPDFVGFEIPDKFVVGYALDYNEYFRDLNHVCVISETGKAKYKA
Protocol: Chemotherapeutic drug 6-MP is an analog of hypoxanthine, and both 6-MP and hypoxanthine are substrates of HGPRT. The present invention established an in vitro enzymatic reaction to determine the Km value of 6-MP and hypoxanthine reacting with HGPRT, respectively, which reflects the affinity of HGPRT to hypoxanthine and 6-MP. The preferred embodiment is as follows:
The specific reaction system is as follows:
Hypoxanthine and 6-MP were diluted in a concentration gradient, reacted at 37° C. for 1 hour, and 80% methanol was added to terminate the reaction. The contents of IMP and TIMP were detected by LC-MS. The reaction curves were plotted and the Km values of hypoxanthine and 6-MP were calculated by Graphpad 5.0 software.

inhibition of GDP/ADP on PRPS1 protein activity [3]	inhibition of GDP/ADP on PRPS1 protein activity [4]	Compound	apoptotic ratio of cells [1]	IC50 values of drug [2]	concentration of PRPP product after adding the nucleotide [5]	concentration of PRPP after adding the nucleotide [6]	further results
		Nc1nc2nc[nH]c2c(=S)[nH]1 [6-TG, 6-thioguanine]	significantly down-regulated	significantly increased			
no significant difference	significantly lower	Nc1nc2c(ncn2[C@@H]2O[C@H](COP(=O)(O)OP(=O)(O)O)[C@@H](O)[C@H]2O)c(=O)[nH]1 [GDP]			not affected	decreased	
no significant difference	significantly lower	Nc1ncnc2c1ncn2[C@@H]1O[C@H](COP(=O)(O)OP(=O)(O)O)[C@@H](O)[C@H]1O [ADP]			not affected	decreased	
		Sc1ncnc2nc[nH]c12 [6-MP, 6-mercaptopurine]	significantly down-regulated	significantly increased			contents of 6-MP metabolites TIMP, TGMP and r-MP, r-TG and r-MMP in cells [7]: significantly lower
		Lometrexol					intracellular levels of 6-MP metabolites TIMP and TGMP (Reh-PRPS1-A190T cells [8]): significantly increased; intracellular levels of 6-MP metabolites TIMP and TGMP (Reh-PRPS1-S103T cells [9]): significantly increased; concentration of hypoxanthine (Reh-PRPS1-A190T cells [10]): significantly decreased; concentration of hypoxanthine (Reh-PRPS1-S103T cells [11]): significantly decreased
		O=c1[nH]cnc2nc[nH]c12 [hypoxanthine]					TIMP generation (6-MP conversion by HGPRT) (HGPRT): significantly inhibited; TIMP generation (6-MP conversion by HGPRT) (HGPRT; listed as HX): can suppress; affinity to HGPRT (Km) (HGPRT): significantly higher; affinity to HGPRT (Km) (HGPRT; listed as HX): preferred to 6-MP
